The values below come from publication PMC3117731, “A systems biology approach to dynamic modeling and inter-subject variability of statin pharmacokinetics in human hepatocytes” (BMC Systems Biology, 2011).

Values joined by “and” are separate entries in the source; they are usually repeats but may differ in a detail not shown here. Identical values can stand only once. Like-named read-outs stand apart in the source and are kept apart here.

The target of one data set is CYP3A4 (Homo sapiens, UniProt P08684).
Data set [1] deals with primary human hepatocytes. The data set can be described thus: Apparent (lumped active transport and passive diffusion) import and export in primary human hepatocytes. In kind it is in vitro ADME. The source says:
Thus, in the following, mechanisms of active transport and passive diffusion are lumped, resulting in the apparent transport rate for import,(12) [drawing 22]
and in the apparent transport rate for export(13) [drawing 23]
described by the product of apparent rate constant κ im/ex of import or export and extra- or intracellular concentration [drawing 24] , respectively (Figure 3). Consequently, the rate constants κ of import and export are set individually, and were to be estimated in the optimization procedure.

Data set [2] concerns primary human hepatocytes. As to the kind of experiment: Time-series experiment of atorvastatin biotransformation in primary human hepatocytes (extra- and intracellular metabolites by LC-MS-MS, model fit). The conditions noted are these: individual 1; 10 μM AS. It is filed as in vitro ADME.
Procedure: Hepatocytes were cultured on collagen gel precoated 6-well plates at a density of 1.5·10^6 cells/well. Cells were allowed to attach to the collagen layer. After transport, culture media was disposed and attached cells were cultured 24 h at 37°C in a humidified chamber with 95%/5% air/CO2 in serum-free medium WME, supplemented with albumin (0.1% (v/v)), penicillin/streptomycin (100 U/ml), stabilized L-glutamine (2 mM), dexamethasone dihydrogenphosphate (0.025% (v/v)) and ITS-X (5 mg insulin, 3.35 μg natrium-selenit, 2.75 mg transferrin and 1 mg ethanolamine), further named SFM.
At specified time-points, three wells were further treated for the preparation of samples for the measurement of extracellular and intracellular metabolites, respectively. SFM media was collected and 50 μL formic acid and deuterated internal standard was added for the further measurement of extracellular metabolites. Cells were harvested in pre-cooled albumin-free SFM, disrupted by freeze/thaw and ultra-sonification and centrifuged. The supernatant was used for the determination of intracellular metabolites.
MS-MS analysis was performed on an Esquire HCT ultra ion trap mass spectrometer (Bruker Daltonics, Bremen, Germany) coupled to an HPLC 1100-System (Agilent, Waldbronn, Germany) consisting of binary pump G1312A, degasser G1379A, well-plate sampler G1367A and column thermostat G1330B. […] The following parameters were applied: nebulizer 45 psi, dry gas 10 l/min, dry temperature 300°C, capillary 4100 V, scan range 200 - 600 m/z.
On the set-up of data set [3]: method as in PMID 8272408. As to conditions: estimated from experimental observations; assumed to be same for ASLpOH and ASLoOH; cited from earlier work.
The subject of a further data set is PON enzymes. As to the kind of experiment: PON mediated lactone hydrolysis, rate constants estimated in the optimization procedure. In kind it is in vitro ADME, human. As to conditions: nominal value from optimization. An excerpt:
The lactone metabolites are either hydrolyzed chemically to the respective acid metabolites inside (c) or outside (m) the cell, or enzymatically by the contribution of PON enzymes inside the cell. Both reactions are described as first order kinetics(4) [drawing 6]
Therefore, maximal rate constants r max of CYP3A4 hydroxylation and UGT1A3 lactonization were predicted for individual 2 and 3 via the relative abundance approach (equation (11)) using the r max -parameters of individual 1 (Table 3) and the protein concentrations observed on the primary human hepatocytes (Table 4). These parameters were then fixed in the optimization. Further, the rate constants k of PON mediated lactone hydrolysis of individual 2 and 3 were estimated in the optimization procedure.

The mark [4] stands for this setting: Individual 1, nominal value from optimization, per ml intracellular volume.
Setting [5] is: Individual 2, predicted via relative abundance approach from individual 1 and CYP3A4 protein concentration.
Setting [6] is: Individual 1, nominal value from optimization.
Setting [7] is: Individual 2, nominal value from optimization.
Setting [8] is: Individual 3, nominal value from optimization.

Chain of CYP3A4 (P08684 2-503 limits assumed): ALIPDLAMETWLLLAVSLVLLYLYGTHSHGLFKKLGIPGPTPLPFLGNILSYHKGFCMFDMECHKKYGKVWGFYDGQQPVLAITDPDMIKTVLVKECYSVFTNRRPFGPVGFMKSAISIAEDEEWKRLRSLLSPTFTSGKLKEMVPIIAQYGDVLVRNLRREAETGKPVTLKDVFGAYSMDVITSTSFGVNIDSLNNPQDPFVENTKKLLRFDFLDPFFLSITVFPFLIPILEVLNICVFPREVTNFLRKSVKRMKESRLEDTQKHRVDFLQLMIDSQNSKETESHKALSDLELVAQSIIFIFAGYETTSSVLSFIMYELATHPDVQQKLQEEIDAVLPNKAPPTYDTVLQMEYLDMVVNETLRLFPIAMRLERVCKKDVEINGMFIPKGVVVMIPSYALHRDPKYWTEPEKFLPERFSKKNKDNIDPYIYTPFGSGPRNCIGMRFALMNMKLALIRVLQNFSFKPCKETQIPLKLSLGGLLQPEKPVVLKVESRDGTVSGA

With `CC(C)c1c(C(=O)Nc2ccccc2O)c(-c2ccccc2)c(-c2ccc(F)cc2)n1CCC(O)CC(O)CC(=O)O` (stereo not shown) [ASoOH, ortho-hydroxy-atorvastatin acid], the “rmax,3A4 (maximal rate of CYP3A4 hydroxylation to the labelled metabolite)” value (“rmax,3A4” below) on CYP3A4 (setting [4]) is 3345 pmol/min/mL; on CYP3A4 (setting [5]), 1991 pmol/min/mL. For the same compound, the “κex (apparent rate constant of export)” value in data set [1] (setting [6]) was 1.60 µL/min; in data set [1] (setting [7]), 3.62 µL/min; in data set [1] (setting [8]), 0.91 µL/min. Besides, the “κim (apparent rate constant of import)” value in data set [1] (setting [6]) stood at 0.39 µL/min; in data set [1] (setting [7]) it was 0.22 µL/min; in data set [1] (setting [8]), 0.00 µL/min. Further, in data set [2], the “ratio of intracellular AUC 0-600 min to extracellular AUC 0-600 min” value stood at 4.5. In addition, the “ratio of intracellular c max to extracellular c max” value in data set [2] is 2.5.

As for `CC(C)c1c(C(=O)Nc2ccc(O)cc2)c(-c2ccccc2)c(-c2ccc(F)cc2)n1CC[C@@H]1C[C@@H](O)CC(=O)O1` [ASLpOH, para-hydroxy-atorvastatin lactone], the “rmax,3A4” value is 1228 pmol/min/mL at CYP3A4 (setting [4]) and 731 pmol/min/mL at CYP3A4 (setting [5]). In addition, the “κex (apparent rate constant of export)” value is 1.13 µL/min and 33.7 µL/min in data set [1] (setting [6]); 1.01 µL/min and 7.24 µL/min in data set [1] (setting [7]); 0.59 µL/min and 8.59 µL/min in data set [1] (setting [8]). Further, the “ratio of intracellular AUC 0-600 min to extracellular AUC 0-600 min” value in data set [2] is 38.2. Moreover, in data set [2], the “ratio of intracellular c max to extracellular c max” value was determined as 34.5.

On to `CC(C)c1c(C(=O)Nc2ccccc2)c(-c2ccccc2)c(-c2ccc(F)cc2)n1CC[C@@H]1C[C@@H](O)CC(=O)O1` [ASL, atorvastatin lactone], for which the “kCR (rate constant of spontaneous hydrolysis of the lactone)” value in data set [3] was 0.0025 min⁻¹. Further, the results for the “κPON (rate constant of PON mediated lactone hydrolysis)” value in the data set with PON enzymes (Individual 1), in the data set with PON enzymes (Individual 2) and in the data set on PON enzymes (Individual 3) were 308 10^-3 min^-1, 99.2 10^-3 min^-1 and 0.00 10^-3 min^-1, respectively. Also, the “κex (apparent rate constant of export)” value in data set [1] (setting [6]) came to 21.8 µL/min; in data set [1] (setting [7]) it was 2.48 µL/min; in data set [1] (setting [8]), 10.5 µL/min. Besides, the figures for the “κim (apparent rate constant of import)” value in data set [1] (setting [6]), in data set [1] (setting [7]) and in data set [1] (setting [8]) were 275 µL/min, 25.8 µL/min and 82.7 µL/min, respectively.

As to `CC(C)c1c(C(=O)Nc2ccc(O)cc2)c(-c2ccccc2)c(-c2ccc(F)cc2)n1CC[C@@H](O)C[C@@H](O)CC(=O)O` [ASpOH, para-hydroxy-atorvastatin acid], the “rmax,3A4” value was 1108 pmol/min/mL on CYP3A4 (setting [4]) and 660 pmol/min/mL on CYP3A4 (setting [5]). Also, the “κex (apparent rate constant of export)” value is 0.80 µL/min in data set [1] (setting [6]), 1.25 µL/min in data set [1] (setting [7]) and 0.52 µL/min in data set [1] (setting [8]). Moreover, the “κim (apparent rate constant of import)” value was determined as 3.96 µL/min in data set [1] (setting [6]), 2.01 µL/min in data set [1] (setting [7]) and 2.53 µL/min in data set [1] (setting [8]).

In the case of “hydroxy-atorvastatin lactones (para- and ortho-) [ASLOH]”, the “κPON (rate constant of PON mediated lactone hydrolysis)” value in the data set on PON enzymes (Individual 1) is listed as 280 10^-3 min^-1; in the data set with PON enzymes (Individual 2), 545 10^-3 min^-1; with PON enzymes (Individual 3) it was 82.9 10^-3 min^-1.

On to `CC(C)c1c(C(=O)Nc2ccccc2O)c(-c2ccccc2)c(-c2ccc(F)cc2)n1CC[C@@H]1C[C@@H](O)CC(=O)O1` [ASLoOH, ortho-hydroxy-atorvastatin lactone], for which the “rmax,3A4” value at CYP3A4 (setting [4]) was 2756 pmol/min/mL; on CYP3A4 (setting [5]), 1640 pmol/min/mL. For the same compound, the “κex (apparent rate constant of export)” value in data set [1] (setting [6]) worked out at 2.67 µL/min; in data set [1] (setting [7]), 86.3 µL/min; in data set [1] (setting [8]), 0.77 µL/min. Further, the “κim (apparent rate constant of import)” value in data set [1] (setting [6]) came out at 26.1 µL/min; in data set [1] (setting [7]), 530 µL/min; in data set [1] (setting [8]), 2.43 µL/min.
